≈ marks a conversion by molar mass, not a printed value.
Key:
[1] = test system: MRSA NRS384 (MRSA USA 300); assay: MIC by standard broth-dilution method; assay type: cell-based, S. aureus; details: Staphylococcus aureus; MRSA NRS384 (MRSA USA 300); N = 3; read-out: MIC
Source text: (§1) For each measurement, three independent replicates were applied.

[2] = test system: stationary-phase MRSA; assay: Time-killing assay in PBS with or without pulsed laser (CFU enumeration); assay type: cell-based, S. aureus; details: after 6 hours in PBS
Procedure: (§2) To quantify viable bacterial cells, CFU experiments were performed. 100 μl of sample analyte was transferred into a 96-well plate and then three or four ten-fold serial dilution achieved by transferring 20 μl bacterial culture into 180 μl 1×PBS in the next dilution row. After serial dilution, an aliquot (4 μl) from each well was spotted onto sterile TSA plates. After incubating the plates overnight (˜18 hours) at 37° C., the colonies were enumerated, and cell number was calculated in CFU/ml. For each CFU enumeration experiment, three independent replicates were applied.
(§3) Stationary-phase MRSA was prepared, washed and resuspended in 1×PBS at two-times of its original concentration. […] After laser treatment, the droplets were resuspended into 200 μl of 1×PBS (1:40 dilution) supplemented with antibiotics at different concentrations in a mini centrifuge tube (89166-278, VWR international). For example, daptomycin was added into MRSA solution after laser treatment at desired concentration of 0×MIC, 5×MIC, 10×MIC, 30×MIC, or 100×MIC supplemented with 50 μg/ml CaCl2). Corresponding groups without laser treatment were also conducted for comparison. These tubes were incubated within an orbital incubator (37° C., 200 rpm) for different incubation time. At each specific time point, 40 μl of aliquot from each group was transferred to a 96-well plate for follow-up CFU enumerating assay. In the case of tobramycin, additional antibiotic washing by 1×PBS was performed before the CFU experiment to avoid antibiotic interference. For time-killing assay in fresh human whole blood, similar protocol was followed as above, except that 1×PBS was replaced by fresh human whole blood and the initial stationary-phase MRSA solution was diluted by ten times with a concentration of ˜10^7 CFU/ml.

[3] = test system: VRSA and multidrug-resistant MRSA clinical isolates; assay: Time-killing assay on resistant clinical isolates; assay type: cell-based, S. aureus; details: 10 MIC daptomycin and laser treatment
Procedure: as §2
as §3, with “In the case of tobramycin, additional antibiotic washing by 1×PBS was performed before the CFU experiment to avoid antibiotic interference. For time-killing assay in fresh human whole blood, similar protocol was followed as above, except that 1×PBS was replaced by fresh human whole blood and the initial stationary-phase MRSA solution was diluted by ten times with a concentration of ˜10^7 CFU/ml.” left out

[4] = test system: MRSA USA300; assay: In vivo mice skin infection model (daptomycin, pulsed laser); design: species or system BALB/c mice
Procedure: The in vivo mice experiment was conducted following protocols approved by Boston University Animal Care and Use Committee (BUACUC). To initiate the formation of a skin wound, five groups (N=5) of eight-week-old female BALB/c mice (obtained from the Jackson Laboratory, ME, USA) were disinfected with ethanol (70%) and shaved on the middle of their back (approximately a one-inch by one-inch square region around the injection site) one day prior to infection as described from a reported procedure^45. To prepare the bacterial inoculum, an aliquot of overnight culture of MRSA USA300 was transferred to fresh TSB and shaken at 37° C. until an OD600 value of ˜1.0 was achieved. The cells were centrifuged, washed once with 1×PBS, re-centrifuged, and then re-suspended in 1×PBS. Mice subsequently received an intradermal injection (40 μl) containing ˜10^9 CFU/ml MRSA USA300. An open wound formed at the site of injection for each mouse, ˜48 hours post-infection. Topical treatment was initiated subsequently with each group of mice receiving the following: daptomycin (1%, using glycerol as the vehicle), pulsed laser (1 cm diameter illumination area, 10 min treatment time, 120 mW), or a combination of pulsed laser and daptomycin. One group of mice was left as the control. […] Data were analyzed via an unpaired t-test, utilizing Origin 2019b (OriginLab Corporation).

[5] = test system: stationary-phase MRSA; assay: Daptomycin-BODIPY membrane insertion assay; assay type: cell-based, S. aureus; details: daptomycin labeled with BODIPY
Procedure: To study how the membrane fluidity change affects the insertion of membrane-targeting antibiotics, we applied daptomycin-BODIPY membrane insertion assay detailed as below. Firstly, we conjugated daptomycin with a fluorescent dye, BODIPY STP ester (B10006, Thermo Fisher Scientific). Briefly, 10 mg of daptomycin (103060-53-3, Acros Organics) was dissolved into 1 ml of 0.1 M sodium bicarbonate solution. Then 100 μl of BODIPY STP ester (B10006, Thermo Fisher Scientific, stock: 1 mg/ml in DMSO) was added to the daptomycin solution drop by drop. Then the mixed solution reacted under stirring at room temperature for 1 hour. Afterwards, the solution was under overnight dialysis against extensive 0.1 M sodium bicarbonate solution. After dialysis, the mixed solution was lyophilized. […] After treatment, bacterial droplets were collected into 985 μl of sterile pre-warned TSB medium containing 150 μg/ml of CaCl2. 10 μl of daptomycin-BODIPY (stock: 3 mg/ml in 1×PBS) was added to the above solution, and incubated for 30 min at 37° C. […] Confocal laser scanning microscope (FV3000, Olympus) was conducted to quantify daptomycin-BODIPY distribution and its signal intensity at an excitation wavelength of 488 nm. Quantitative analysis of the signal from individual MRSA cells was performed among groups with different laser treatment time.

[6] = test system: VRSA NR-46419 (VRSA 9); assay: MIC by standard broth-dilution method; assay type: cell-based, S. aureus; details: Staphylococcus aureus, N = 3
Source text: as §1

[7] = test system: stationary-phase MRSA; assay type: cell-based, S. aureus; details: checkerboard assay, MRSA growth inhibition
Procedure: To monitor the response of bacteria to laser treatment alone, antibiotic treatment alone, or their combinations, bacterial growth was continuously monitored overnight (18 hours with an interval of 30 min at 37° C.) by measuring optical density at 600 nm (OD600). Depending on the specific assay applied, the bacterial cells were suspended in 100 or 200 μl TSB medium under different treatment schemes (antibiotic alone, laser treatment alone, antibiotic plus laser treatment) with a final concentration of ˜10^5 CFU/ml. Bacterial growth was defined as OD600≥0.1.
Stationary-phase bacterial cells was washed and resuspended in 1×PBS at its original concentration. […] The treated droplet was collected and resuspended into 5 ml TSB (1:1000 dilution) for each group. Corresponding groups without laser treatment were also conducted for comparison. The bacterial suspensions were transferred to a 96-well plate with antibiotics supplemented into with the first row of the 96-well plate for eight two-fold serial dilution starting at a desired antibiotic concentration (e.g. ofloxacin: 2 μg/ml). After serial dilution, bacterial growth within the same well plate was monitored by a plate reader for 18 hours (OD600, 37° C.). The checkerboard assay was used for groups with laser treatment alone or laser plus antibiotic treatment. Two independent experiments of checkerboard assay were performed for each antibiotic with or without laser treatment. Based on the readout of OD600, a heat map was created to evaluate the antibiotic potentiation or synergistic effect enabled by STX photolysis.
Based on the checkerboard results, the fractional inhibitory concentration index (FICI), a synergy evaluation method between two antibiotics, was calculated as below: FICI=MIC of antibiotic A in combination/MIC of antibiotic A alone+MIC of antibiotic B in combination/MIC of antibiotic B alone. The interaction of the two antibiotics was defined as below: synergy if FICI≤0.5, no interaction if 0.5<FICI≤4, antagonism if FICI>4^46. […] Considering this reason, the synergy calculation was simplified as below: FICI=MIC of antibiotic A in combination with laser treatment/MIC of antibiotic A alone with synergy defined by FICI≤0.5.

[8] = test system: S. aureus (ATCC 6538) biofilm; details: antibiotic alone
[9] = test system: MRSA USA400 inside murine macrophage cells (J774); assay: Intracellular MRSA infection model in J774 macrophage cells; details: infected macrophage cells; vancomycin 2 μg/mL (4×MIC)

In the case of `CCCCCCCCCC(=O)N[C@@H](Cc1c[nH]c2ccccc12)C(=O)N[C@H](CC(N)=O)C(=O)N[C@@H](CC(=O)O)C(=O)N[C@@H]1C(=O)NCC(=O)N[C@@H](CCCN)C(=O)N[C@@H](CC(=O)O)C(=O)N[C@H](C)C(=O)N[C@@H](CC(=O)O)C(=O)NCC(=O)N[C@H](CO)C(=O)N[C@@H]([C@H](C)CC(=O)O)C(=O)N[C@@H](CC(=O)c2ccccc2N)C(=O)O[C@@H]1C` [Daptomycin, daptomycin], the MIC [1] is reported as 8 µg/mL (≈ 4.94 µM), the “reduction of stationary-phase MRSA” value ([2]; 10 MIC with 5 min laser treatment) is reported as “more than 3.5 log” and the “reduction of stationary-phase MRSA” value ([2]; antibiotic alone at 100 MIC) is reported as 1 log. The “eradication by synergistic therapy” value [3] was “effective in eradicating”, the “cell killing in infected skin (CFU)” value ([4]; 10 mg/ml daptomycin alone, topical) was 81% and the “cell killing in infected skin (CFU)” value ([4]; 10 mg/ml daptomycin plus 10 min laser) was “around 95%”. The “cellular uptake / membrane insertion with laser treatment vs untreated” value [5] was “significantly more daptomycin uptake”.

`CN[C@H](CC(C)C)C(=O)N[C@H]1C(=O)N[C@@H](CC(N)=O)C(=O)N[C@H]2C(=O)N[C@H]3C(=O)N[C@H](C(=O)N[C@H](C(=O)O)c4cc(O)cc(O)c4-c4cc3ccc4O)[C@H](O)c3ccc(c(Cl)c3)Oc3cc2cc(c3O[C@@H]2O[C@H](CO)[C@@H](O)[C@H](O)[C@H]2O[C@H]2C[C@](C)(N)[C@H](O)[C@H](C)O2)Oc2ccc(cc2Cl)[C@H]1O` [Vancomycin, vancomycin] was tested, and the MIC [6] was 256 µg/mL (≈ 177 µM), the “synergism between laser treatment and antibiotic” value [7] was “no synergism” and the “MRSA killed inside biofilm” value [8] was 70%. For the same molecule, the “killing of intracellular MRSA 400 (CFU)” value [9] was “no effect”.

Reference: patent publication US20200306295A1, “METHOD AND DEVICE FOR ANNIHILATION OF Staphylococcus aureus” (priority 2017, published 2020)
